Assay results: patent publication US11242331B2 (University of Florida Research Foundation, Incorporated, priority 2016, dated 2022)

What was measured:
[1] = test system: endogenous Nrf2 target gene, NQO1; test: RT-qPCR validation of ARE inhibition in MDA-MB-231-ARE-Luc cells; assay type: cell-based, human; conditions: 24 h, relative to 0.5% DMSO
Experimental: (§1) The library compounds were then assessed for the potential to modulate the activity of another key transcription factor, NF-E2-related factor 2 (Nrf2), which acts on the antioxidant response element (ARE) in the promoter region upstream of antioxidant and phase II detoxification enzymes. Activators of the Nrf2-ARE pathway have potential as cancer preventive agents because of their ability to increase antioxidant status of the cell and protect from oxidative damage that could lead to cancer. Inhibitors in turn may increase the susceptibility of cancer cells to chemotherapeutic agents and overcome drug resistance since Nrf2 is commonly activated in cancer.^44 To screen for Nrf2 inhibitors, MDA-MB-231 breast cancer cells (a model for invasive, triple negative breast cancer) stably transfected with the ARE-luciferase reporter were used, where the promoter region is derived from the human NQO1 gene.^45 As a control, cell viability was monitored to ensure the identification of false positives in the reporter gene assay that are a result of concomitant reduced cell viability.
The antioxidant response element (ARE) expression induction assay with LNCaP cells was performed as previously described.^6 The ARE expression inhibition assay was performed with MDA-MB-231-ARE-Luc cells that stably express the ARE reporter construct.7 MDA-MB-231-ARE-Luc cells were seeded in 96 well plates at 1.5×10^4 cells/well in DMEM medium (GIBCO) containing 10% FCS and 1% antibiotic-antimycotic (GIBCO), and allowed to attach overnight. Test compounds were screened in triplicate at three concentrations (100, 10 and 1 μM) and ARE expression was quantified on the EnVision plate reader (Perkin-Elmer) using the BriteLite plus luciferase reporter assay system (Perkin-Elmer) after 24 h exposure in a humidified incubator at 37° C. with 5% CO2. […]
In order to validate the ARE modulatory effects of compounds from the primary screen, the expression of the target Nrf2 target gene, Ngo1, was quantified by RT-qPCR. […]

Staphylococcus aureus = test: Bacterial growth inhibition assay, S. aureus; assay type: cell-based; conditions: 16-18 h, OD600
Experimental: (§2) Each biological screen was performed in three independent experiments at concentrations of 1, 10, 100 or 200 μM. All hit compounds identified in primary screens were then evaluated in follow-up assays to validate/confirm the initial screening results.
Bacterial growth inhibition was determined by screening all yohimbine-derived compounds at 200 μM in 96-well plates. Briefly, 2 μL of a 20 mM DMSO stock solution (test compound) was added to 98 μL of media (tryptic soy broth with 0.5% glucose for S. aureus; LB for A. baumannii) before each well was treated with an additional 100 μL of inoculated media (giving ˜10^5 colony forming units per milliliter) prepared from a fresh log-phase culture (OD600 of 0.8 to 1.0). The inoculated 96-well plates were then covered and placed in a humidifying chamber and allowed to incubate at 37° C. for 16-18 hours. Bacterial growth was then determined using a spectrophotometer plate reader (OD600) to quantify turbidity (growth) in each treated and untreated well of the 96-well plates. Turbidity for treated wells were compared to a 1% v/v DMSO vehicle and recorded in the screening heat map. All compounds were tested in three independent experiments.

endogenous NQO1 = test: RT-qPCR validation of ARE activation in LNCaP cells; assay type: cell-based, human; conditions: for levels of endogenous NQO1 (ARE activation): 24 h, RT-qPCR, relative to 0.5% DMSO; for potency compared with positive control sulforaphane: NQO1 RT-qPCR, sulforaphane 10 μM
Experimental: (§3) As a control, LNCaP viability was monitored in parallel (FIG. 11E).
(§4) The antioxidant response element (ARE) expression induction assay with LNCaP cells was performed as previously described.^6 The ARE expression inhibition assay was performed with MDA-MB-231-ARE-Luc cells that stably express the ARE reporter construct.7 MDA-MB-231-ARE-Luc cells were seeded in 96 well plates at 1.5×10^4 cells/well in DMEM medium (GIBCO) containing 10% FCS and 1% antibiotic-antimycotic (GIBCO), and allowed to attach overnight. Test compounds were screened in triplicate at three concentrations (100, 10 and 1 μM) and ARE expression was quantified on the EnVision plate reader (Perkin-Elmer) using the BriteLite plus luciferase reporter assay system (Perkin-Elmer) after 24 h exposure in a humidified incubator at 37° C. with 5% CO2. In both cell line assays the luciferase expression for compound-treated wells was expressed relative the 0.5% DMSO carrier solvent control. A parallel viability assay was performed with the Cell Titer 96 Non-radioactive Cell Proliferation Assay (Promega) and the data expressed in the same manner as above. Compounds that inhibited ARE expression 20% more than viability, or induced ARE expression more than three-fold were re-tested in a seven-point, two-fold serial dilution dose-response assay (100-1.56 μM).
In order to validate the ARE modulatory effects of compounds from the primary screen, the expression of the target Nrf2 target gene, Ngo1, was quantified by RT-qPCR. LNCaP and MDA-MB-231-ARE-Luc cells were seeded in 6 well plates at 5×10^5 and 7×10^5 cells per well, in EMEM and DMEM media containing 10% FCS and 1% antibiotic-antimycotic (GIBCO) respectively. Cells were allowed to attach overnight before the addition of test compounds. After 24 h exposure in a humidified incubator at 37° C. with 5% CO2, RNA was isolated using the RNeasy kit (Qiagen) and quantified using a NanoDrop spectrophotometer (Thermo Fisher Scientific). cDNA was synthesized from 2 μg of RNA using Oligo(dT)12-18 (Life Technologies) primer and SuperScript II (Thermo Fisher Scientific) on the Mastercycler Gradient PCR machine (Eppendorf) for 1 h at 42° C. following a 10 min denaturation at 65° C. Gene expression was quantified on the 7300 Real Time PCR machine (Applied Biosystems) using TaqMan Gene Expression Master Mix (Thermo Fisher Scientific) and probes for the target gene Nqo1 (Hs02512143_s1, Thermo Fisher Scientific) and reference gene ActB (Hs99999903_m1, Thermo Fisher Scientific). Real time PCR was performed with the following thermal cycle: 1. 50° C. for 2 min; 2. 95° C. for 10 min; 3. 40 cycles of 95° C. for 15 sec followed by 60° C. for 1 min.

[2] = test system: NO production in RAW264.7 cells; test: Nitric oxide assay (Griess reagent); assay type: cell-based, mouse; conditions: RAW264.7 macrophage cells, LPS, 24 h
Experimental: as §2
(§5) Mouse macrophage, RAW264.7 cells were cultured in Dulbecco's Modified Eagle Medium (DMEM) supplemented with 10% fetal bovine serum and maintained in 5% C02 at 37° C. Cells were seeded in 96-well plates (20,000 cells/well) and after 24 h pretreated for 1 hour with different concentrations of test compounds in triplicate or solvent control (0.5% DMSO) before adding LPS (1 μg/mL in PBS). Nitric oxide (NO) production in culture supernatant was assessed after 24 h following treatment by measuring nitrite concentration, an oxidative product of NO. Nitrite production was measured by mixing […] of culture supernatant with […] of Griess reagent (Promega), absorbance measured at 540 nm and NO % calculated against a calibration curve generated for fresh sodium nitrite standard. Cells were used for measuring viability (24 h) as above.

RAW264.7 cells = test: RAW264.7 cell viability (MTT); assay type: cell-based, mouse; conditions: 24 h
Experimental: Human colorectal cancer cell lines HCT116, HCT116^HIF-1α−/−HIF-2α−/−, and HCT 116^WT KRAS were cultured in Dulbecco's Modified Eagle Medium (DMEM) supplemented with 10% fetal bovine serum and maintained in 5% CO2 at 37° C. The cells were seeded in a 96-well plate (10,000 cells/well) and treated with different concentrations of test compounds or solvent control (0.5% DMSO) after 24 h. Cell viability was measured 48 h following treatment with MTT dye using the manufacturer's protocol (Promega).
as §5

[3] = test system: parental HCT116 and HCT116 HIF-1α−/−HIF-2α−/− cells; test: Cell viability assay in isogenic HCT116 lines (HIF-dependent anticancer activity); assay type: cell-based, human; conditions: parental HCT116 vs HCT116 HIF-1α/HIF-2α double knockout, 48 h, MTT
Excerpt: The screen aimed to identify selective antiproliferative agents that preferentially act on cancer cells with functional hypoxia-inducible factors (HIF) pathways. […] Isogenic HCT116 colorectal cancer cell lines were employed, including parental HCT116 and HCT116 double knockout cells lacking HIF-1α and HIF-2α,^36,37 and the library was screened for differential antiproliferative activity.

[4] = test system: Nrf2-ARE pathway (ARE-luciferase reporter); test: ARE luciferase assay in LNCaP cells (activation); assay type: cell-based, human; conditions: 24 h, screened at 100, 10 and 1 μM
Experimental: as §2, §3
as §4, with “Compounds that inhibited ARE expression 20% more than viability, or induced ARE expression more than three-fold were re-tested in a seven-point, two-fold serial dilution dose-response assay (100-1.56 μM).” left out

[5] = test system: Nrf2-ARE pathway (ARE-luciferase reporter); test: ARE luciferase assay in MDA-MB-231-ARE-Luc cells (inhibition); assay type: cell-based, human; conditions: 24 h, screened at 100, 10 and 1 μM
Experimental: as §2
as §1, with “viability. […]” for “viability.”

Q: What does the source list for `COC(=O)[C@@H]1[C@H]2C[C@@H](c3[nH]c4ccccc4c3CCn3cc(-c4cccc(Cl)c4)nn3)N(C#N)C[C@@H]2CC[C@@H]1O` [Y1f]?
A: transcription of endogenous NQO1 [1]: downregulated NQO1 transcription; inhibition at 200 µM (Staphylococcus aureus): ~20%

Q: `COC(=O)[C@@H]1[C@H]2C[C@@H]3N(CC[C@@]34C(=O)N(c3ccc(Oc5ccccc5)cc3)c3ccccc34)C[C@@H]2CC[C@@H]1O` [Y3e] was tested. Which “transcription of endogenous NQO1” value [1] did it give?
A: downregulated NQO1 transcription

Q: With `OC[C@@H]1[C@H]2C[C@@H]3OCc4ccccc4-n4c3c(c3ccccc34)CCNC[C@@H]2CC[C@@H]1O` [Y5b] as the compound, how does the “levels of endogenous NQO1 (ARE activation)” value (endogenous NQO1) read?
A: active at lower concentrations

Q: What about the “potency compared with positive control sulforaphane” value (endogenous NQO1) of the same compound?
A: only slightly less potent than the positive control

Q: With `COC(=O)[C@@H]1[C@H]2C[C@H](OCc3ccc(Br)cc3)c3[nH]c4ccccc4c3CCN(C#N)C[C@@H]2CC[C@@H]1O` [Y6q] as the compound, how does the “transcription of endogenous NQO1” value [1] read?
A: downregulated NQO1 transcription

Q: What about the inhibition at 200 µM (Staphylococcus aureus) of the same compound?
A: ~20%

Q: For `CC(=O)N1CCc2c([nH]c3ccccc23)[C@H](OCc2ccccc2)C[C@H]2[C@@H](CC[C@H](O)[C@@H]2CO)C1` [Y6u], which “levels of endogenous NQO1 (ARE activation)” value (endogenous NQO1) is on record?
A: active at lower concentrations

Q: And the “potency compared with positive control sulforaphane” value (endogenous NQO1)?
A: only slightly less potent than the positive control

Q: `COC(=O)[C@@H]1[C@H]2C[C@@H]3N(CC[C@@]34C(=O)N(Cc3cccc(OC)c3)c3ccccc34)C[C@@H]2CC[C@@H]1OCc1cccc(OC)c1` [Y7g] was tested. Which “inhibition of nitric oxide (NO) production” value [2] did it give?
A: most selective anti-inflammatory activity

Q: And the cell viability (RAW264.7 cells)?
A: almost unaffected

Q: What about the “differential (HIF-dependent) antiproliferative activity” value [3] of the same compound?
A: most selective antiproliferative agent

Q: With `COC(=O)[C@@H]1[C@H]2C[C@H]3c4[nH]c5ccccc5c4CCN3C[C@@H]2CC[C@@H]1O` [yohimbine 1, yohimbine] as the compound, how does the “inhibition of nitric oxide (NO) production” value [2] read?
A: does not possess any of these activities

Q: And the “ARE activation (luciferase reporter)” value [4]?
A: does not possess any of these activities

Q: And the “ARE inhibition (luciferase reporter)” value [5]?
A: does not possess any of these activities
